According to ChEMBL document CHEMBL1759968, “Synthesis and biological evaluation of unsaturated keto and exomethylene D-arabinopyranonucleoside analogs: novel 5-fluorouracil analogs that target thymidylate synthase” (Eur J Med Chem, 2011):
Active and inactive are the calls of the source. No cut-off for these calls is given here.

Experiments:
[1] = system: Respiratory syncytial virus; test: Antiviral activity against Respiratory syncytial virus infected in HeLa cells assessed as inhibition of virus-induced cytopathic effect; assay type: functional, organism-based
[2] = system: L1210; test: Inhibition of RNA synthesis in mouse L1210 cells assessed as [5-3H]uridine incorporation in to RNA by liquid scintillation counting; assay type: functional, cell-based
[3] = system: Sindbis virus; test: Antiviral activity against Sindbis virus infected in Vero cells assessed as inhibition of virus-induced cytopathic effect; assay type: functional, organism-based
[4] = system: L1210; test: Inhibition of DNA synthesis in mouse L1210 cells assessed as [6-3H]2'-deoxyuridine incorporation in to DNA by liquid scintillation counting; assay type: functional, cell-based
[5] = system: Coxsackievirus B4; test: Antiviral activity against Human coxsackievirus B4 infected in HeLa cells assessed as inhibition of virus-induced cytopathic effect; assay type: functional, organism-based
[6] = system: L1210; test: Inhibition of RNA synthesis in mouse L1210 cells assessed as [5-3H]uridine incorporation in to RNA preincubated for 24 hrs by liquid scintillation counting; assay type: functional, cell-based
[7] = system: HeLa; test: Cytostatic activity against human HeLa cells after 3 days by coulter counting analysis; assay type: functional, cell-based; conditions: 72 h
[8] = system: HeLa; test: Cytostatic activity against human HeLa cells in presence of 20 uM 2'-deoxyuridine; assay type: functional, cell-based
[9] = system: HeLa; test: Cytostatic activity against human HeLa cells in presence of 500 uM uracil; assay type: functional, cell-based
[10] = system: L1210; test: Cytostatic activity against mouse L1210 cells in presence of 20 uM 2'-deoxyuridine; assay type: functional, cell-based
[11] = system: L1210; test: Cytostatic activity against mouse L1210 cells after 2 days by coulter counting analysis; assay type: functional, cell-based; conditions: L1210, 48 h
[12] = system: Vesicular stomatitis virus; test: Antiviral activity against Vesicular stomatitis virus infected in HeLa cells assessed as inhibition of virus-induced cytopathic effect; assay type: functional, organism-based
[13] = system: Vaccinia virus; test: Antiviral activity against Vaccinia virus infected in HEL cells assessed as inhibition of virus-induced cytopathic effect; assay type: functional, organism-based; conditions: Orthopoxvirus vaccinia
[14] = system: HeLa; test: Cytostatic activity against human HeLa cells in presence of 20 uM thymidine; assay type: functional, cell-based
[15] = system: L1210; test: Cytostatic activity against mouse L1210 cells in presence of 500 uM uridine; assay type: functional, cell-based
[16] = system: L1210; test: Inhibition of DNA synthesis in mouse L1210 cells assessed as [methyl-3H]thymidine incorporation in to DNA preincubated for 24 hrs by liquid scintillation counting; assay type: functional, cell-based
[17] = system: L1210; test: Cytostatic activity against mouse L1210 cells in presence of 20 uM thymidine; assay type: functional, cell-based
[18] = system: Human alphaherpesvirus 1; test: Antiviral activity against Herpes simplex virus type-1 infected in HEL cells assessed as inhibition of virus-induced cytopathic effect; assay type: functional, organism-based
[19] = system: Human respirovirus 3; test: Antiviral activity against Human parainfluenza virus 3 infected in Vero cells assessed as inhibition of virus-induced cytopathic effect; assay type: functional, organism-based
[20] = system: HeLa; test: Cytostatic activity against human HeLa cells in presence of 500 uM uridine; assay type: functional, cell-based
[21] = system: Mammalian orthoreovirus 1; test: Antiviral activity against Reovirus 1 infected in Vero cells assessed as inhibition of virus-induced cytopathic effect; assay type: functional, organism-based
[22] = system: Coxsackievirus B4; test: Antiviral activity against Human coxsackievirus B4 infected in Vero cells assessed as inhibition of virus-induced cytopathic effect; assay type: functional, organism-based
[23] = system: Human alphaherpesvirus 2; test: Antiviral activity against Herpes simplex virus type-2 infected in HEL cells assessed as inhibition of virus-induced cytopathic effect; assay type: functional, organism-based
[24] = system: L1210; test: Inhibition of DNA synthesis in mouse L1210 cells assessed as [6-3H]2'-deoxyuridine incorporation in to DNA preincubated for 24 hrs by liquid scintillation counting; assay type: functional, cell-based
[25] = system: Vesicular stomatitis virus; test: Antiviral activity against Vesicular stomatitis virus infected in HEL cells assessed as inhibition of virus-induced cytopathic effect; assay type: functional, organism-based
[26] = system: FM3A; test: Cytostatic activity against mouse FM3A cells after 2 days by coulter counting analysis; assay type: functional, cell-based; conditions: 48 h
[27] = system: Punta Toro virus; test: Antiviral activity against Punta Toro virus infected in Vero cells assessed as inhibition of virus-induced cytopathic effect; assay type: functional, organism-based
[28] = system: L1210; test: Cytostatic activity against mouse L1210 cells in presence of 500 uM uracil; assay type: functional, cell-based
[29] = system: CCRF-CEM; test: Cytostatic activity against human CEM cells after 3 days by coulter counting analysis; assay type: functional, cell-based; conditions: 72 h
[30] = system: L1210; test: Inhibition of DNA synthesis in mouse L1210 cells assessed as [methyl-3H]thymidine incorporation in to DNA by liquid scintillation counting; assay type: functional, cell-based
[31] = system: CCRF-CEM; test: Ratio of compound IC50 to 5-flurouracil IC50 for human CEM cells; assay type: functional
[32] = system: L1210; test: Ratio of compound IC50 to 5-flurouracil IC50 for mouse L1210 cells; assay type: functional
[33] = system: FM3A; test: Ratio of compound IC50 to 5-flurouracil IC50 for mouse FM3A cells; assay type: functional
[34] = system: HeLa; test: Ratio of compound IC50 to 5-flurouracil IC50 for human HeLa cells; assay type: functional
[35] = molecular target: T1, Thymidylate synthase (Mus musculus, UniProt P07607); test: Inhibition of thymidylate synthase in mouse L1210 cells assessed as inhibition of tritium release from [5-3H]deoxycytidine after preincubation for 4 hrs by liquid scintillation counting; assay type: cell-based
T1 sequence (P07607 whole entry): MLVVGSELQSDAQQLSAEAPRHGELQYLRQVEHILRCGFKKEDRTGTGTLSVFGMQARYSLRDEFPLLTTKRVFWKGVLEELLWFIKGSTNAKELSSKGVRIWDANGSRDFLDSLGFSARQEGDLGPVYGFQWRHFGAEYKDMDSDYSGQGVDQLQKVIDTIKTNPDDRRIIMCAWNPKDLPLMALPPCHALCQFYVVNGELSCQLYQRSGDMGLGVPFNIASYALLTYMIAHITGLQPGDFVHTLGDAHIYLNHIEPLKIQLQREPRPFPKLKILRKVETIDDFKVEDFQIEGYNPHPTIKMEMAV

[36] = molecular target: T1, Thymidylate synthase; test: Inhibition of thymidylate synthase in mouse L1210 cells assessed as inhibition of tritium release from [5-3H]deoxycytidine after preincubation for 24 hrs by liquid scintillation counting; assay type: cell-based
[37] = molecular target: T1, Thymidylate synthase; test: Inhibition of thymidylate synthase in mouse L1210 cells assessed as inhibition of tritium release from [5-3H]deoxycytidine after preincubation for 15 mins by liquid scintillation counting; assay type: cell-based
[38] = molecular target: T1, Thymidylate synthase; test: Inhibition of thymidylate synthase in mouse L1210 cells assessed as inhibition of tritium release from [5-3H]deoxyuridine after preincubation for 4 hrs by liquid scintillation counting; assay type: cell-based
[39] = molecular target: T1, Thymidylate synthase; test: Inhibition of thymidylate synthase in mouse L1210 cells assessed as inhibition of tritium release from [5-3H]deoxyuridine after preincubation for 24 hrs by liquid scintillation counting; assay type: cell-based
[40] = Stability of compound in phosphate buffered saline up to 3 days; assay type: physicochemical; conditions: buffer, 72 h
[41] = molecular target: T1, Thymidylate synthase; test: Inhibition of thymidylate synthase in mouse L1210 cells assessed as inhibition of tritium release from [5-3H]deoxyuridine after preincubation for 15 mins by liquid scintillation counting; assay type: cell-based
[42] = Stability of compound in phosphate buffer at pH 6.2 after 60 mins; assay type: physicochemical; conditions: pH 6.2, 1 h

Structure (SMILES)	Activity [1]	Activity [3]	Activity [5]	IC50 [8]	IC50 [9]	IC50 [10]	IC50 [11]	Activity [12]	Activity [13]	IC50 [14]	IC50 [15]	IC50 [17]	Activity [18]	Activity [19]	IC50 [20]	Activity [21]	Activity [22]	Activity [23]	Activity [25]	IC50 [26]	also measured
C=C1C=CCO[C@@H]1n1cc(F)c(O)nc1=O	inactive	inactive	inactive	1.4 µM	18 µM	18 µM	8 µM	inactive	inactive	34 µM	5.7 µM	182 µM	inactive	inactive	8 µM	inactive	inactive	inactive	inactive	2.4 µM	IC50 [2]: > 100 µM; IC50 [4]: 37 µM; IC50 [6]: 84 µM; IC50 [7]: 3.5 µM; IC50 [16]: > 500 µM; IC50 [24]: 7.9 µM; Activity [27]: inactive; IC50 [28]: 5.8 µM; IC50 [29]: 85 µM; IC50 [30]: > 500 µM
O=C1C=CCO[C@@H]1n1cc(F)c(O)nc1=O	inactive	inactive	inactive	0.62 µM	8 µM	3.5 µM	1.3 µM	inactive	inactive	7.1 µM	2 µM	75 µM	inactive	inactive	5.3 µM	inactive	inactive	inactive	inactive	0.23 µM	IC50 [2]: 63 µM; IC50 [4]: 3.1 µM; IC50 [6]: 16 µM; IC50 [7]: 0.97 µM; Ratio [31]: 1.5; IC50 [16]: 294 µM; Ratio [32]: 1.5; IC50 [24]: 2.5 µM; Activity [27]: inactive; Ratio [33]: 1.5; IC50 [28]: 1 µM; Ratio [34]: 1.5; IC50 [29]: 17 µM; IC50 [30]: 349 µM
C=C1C=CCO[C@@H]1n1cc(F)c(=O)[nH]c1=O	–	–	–	–	–	–	–	–	–	–	–	–	–	–	–	–	–	–	–	–	IC50 [35]: 9.3 µM; IC50 [36]: 2.2 µM; IC50 [37]: > 10 µM; IC50 [38]: 8.7 µM; IC50 [39]: 0.43 µM; Stability [40]: Stable; IC50 [41]: > 10 µM; Stability [42]: Stable
O=c1[nH]c(=O)n([C@H]2C[C@H](O)[C@@H](CO)O2)cc1F [FLOXURIDINE]	inactive	inactive	inactive	0.021 µM	0.11 µM	0.0051 µM	0.0011 µM	inactive	inactive	8.5 µM	0.0023 µM	100 µM	inactive	inactive	0.061 µM	inactive	inactive	inactive	inactive	0.0094 µM	IC50 [36]: 0.0007 µM; IC50 [37]: 0.0006 µM; IC50 [38]: 0.0004 µM; IC50 [39]: 0.0004 µM; Activity [27]: inactive; IC50 [41]: 0.0006 µM; IC50 [28]: 0.00063 µM
